Source: patent US20210128511A1, “PRODRUG COMPOSITIONS AND METHODS OF TREATMENT” (AQUESTIVE THERAPEUTICS, INC., priority 2019, published 2021)
“Also recorded” adds a separate entry of the source.

Key:
[1] = Intramuscular study in minipig for prodrugs, epinephrine pharmacokinetic profile; type: in vivo, male Yucatan miniature swine; conditions: epinephrine in plasma, IM 2 mg/animal
Procedure: (§1) Yucatan minipigs (n=4 males per group) were weighed and weights were recorded. The morning of the study, the vascular access port (VAP) of each animal was checked for proper functioning. Minipigs with viable VAP were removed from the home cage and placed in a holding sling. The animals were fasted overnight prior to dose administration and for the duration of PK blood collections.
All the formulations were prepared fresh on the day of dosing and maintained on wet ice until dosing. The dose was injected in the rear hind limb. Prior to administering, the plunger of the syringe was aspirated and observed for any blood that may flow into the syringe. If no blood was observed, it was verified that the needle was in proper placement, and the test articles were administered.
At each specified time-point, 6 mL of whole blood was collected into blood collection tubes containing K2EDTA as the anticoagulant and sodium metabisulfite as stabilizer. Sodium metabisulfite was at a concentration of 8.9 mM, pH 3 (60 μL/6 mL of whole blood of the 890 mM stock solution). SigmaFast (600 μL of SigmaFast 1× solution to 6 mL of whole blood) was added immediately to the tubes as the enzyme arresting agent. The tubes were inverted several times for mixing upon addition of SigmaFast solution. […] The resulting plasma was obtained and stored at approximately […]. The analysis of epinephrine was done using LC-MS/MS method.
as §1, with “Applicants sought to identify epinephrine prodrugs with higher permeability and slower hydrolysis after intramuscular (IM) administrations. […] Yucatan” for “Yucatan”, “minipigs” for “minipigs (n=4 males per group)”, “in the” for “weights were recorded. The”
The dose was injected in the rear hind limb. […] At each specified time-point, 6 mL of whole blood was collected into blood collection tubes containing anticoagulant and stabilizer. Protease inhibitor cocktail was added and the tubes were inverted several times for mixing. All blood samples were centrifuged and the resulting plasma was analyzed for epinephrine using LC-MS/MS method.

[2] = In vitro human whole blood hydrolysis assay; conditions: for hydrolysis in human whole blood compared to L-Dipivefrin: 1 μM, 37° C., up to 6 hours, epinephrine in plasma by LC-MS/MS
Procedure: Fresh healthy human whole blood was collected in blood collection tubes and preincubated for 30 min at 37° C.
Using human whole blood in vitro, epinephrine levels in plasma was measured. Whole blood was collected from 2 donors. Compounds were incubated at 1 μM conc with Stabilizer. Plasma was separated after stopping the enzyme reaction at different timepoints. Samples were extracted and analyzed by LC-MS method.

[3] = Ex vivo permeation study, Franz diffusion cell; type: in vitro ADME, porcine; conditions: for permeation: ex vivo, compared to L-Dipivefrin
Procedure: The Franz diffusion cell apparatus consists of two chambers separated by a membrane. The permeation studies were conducted using porcine buccal mucosa obtained from a slaughterhouse. The tissues were dermatomed to typically […] and mounted in vertical Franz diffusion cells maintained at 37° C. The tissue membrane separates the donor compartment containing the drug mixed with the permeation enhancer solution and the receptor compartment containing the collection media whish was selected to provide sink conditions throughout the experiment. The permeation rate was observed over several hours by analysing drug concentration in the receptor medium.
In one example, a permeation procedure is conducted as follows. A temperature bath is set to 37° C., and receiver media is placed in a water bath to adjust the temperature and begin degassing. A Franz diffusion cell is obtained and prepared. The Franz diffusion cell includes a donor compound, a donor chamber, a membrane, sampling port, receptor chamber, stir bar, and a heater/circulator. A stir bar is inserted into a Franz diffusion cell. Tissue is placed over the Franz diffusion cell, and it is ensured that the tissue covers the entire area with an overlap onto a glass joint. The top of a diffusion cell is placed over the tissue, and the top of the cell is clamped to the bottom. About 5 mL of receptor media is loaded into the receiver area to ensure that no air bubbles are trapped in the received portion of the cell. This ensures that all 5 mL can fit into the receiver area. Stirring is begun, and temperature is allowed to equilibrate for about 20 minutes. Meanwhile, High Performance Liquid Chromatography (HPLC) vials are labelled by cell number and time point. One must then check again for air bubbles as the solution will degas during heating.
If testing films, one can perform the following next steps: (1) weigh films, punch to match diffusion area (or smaller), reweigh, record pre- and post-punching weight; (2) wet a donor area with approximately 100 μL of phosphate buffer; (3) place film on a donor surface, top with 400 μL of phosphate buffer, and start timers.
For solution studies, one can perform the following steps: (1) using a micropipette, dispense 500 μL of the solution into each donor cell, start the timers; (2) sample 200 μL at the following time points (time=0 min, 20 min, 40 min, 60 min, 120 min, 180 min, 240 min, 300 min, 360 min), and place in labelled HPLC vials, ensure no air is trapped in the bottom of the vial by tapping the closed vials; (3) replace each sample time with 200 uL of receptor media (to maintain 5 mL); (4) When all time points completed, disassemble the cells and dispose of all materials properly.
1. Tissue is freshly excised and shipped (e.g. overnight) at 4° C. 2. The tissue is processed and frozen at −20° C. for up to three weeks prior to use. 3. The tissue is dermatomed to precise thickness. 4. Approximately 5 mL of receiving media is added to the receiving compartment. The media is selected to ensure sink conditions. 5. The tissue is placed in a Franz diffusion cell, which includes a donor compound, a donor chamber, a membrane, sampling port, receptor chamber, stir bar, and a heater/circulator. 6. Approximately 0.5 mL of donor solution is applied or 8 mm circular film and wetted with 500 μL PBS buffer. 7. Samples are taken from the receiving chamber at given intervals and replaced with fresh media.

[4] = Hydrolysis testing after IV exposure, PK parameters; type: in vivo
Procedure: Hydrolysis was analyzed after intravenous (IV) administrations. All Groups were tested at the following time intervals: 0 (predose), 2, 5, 10, 12, 15, 17, 20, 25, 30, 40, 60, 90 and 120 minutes and 3 hr, 4 hr, 6 hr and 8 hr post dose.

[5] = Effect of sodium fluoride on drug absorption; conditions: relative to compositions that did not include NaF
Description: Referring to FIG. 17, the graph indicates the effect of sodium fluoride on drug absorption.

Row | SMILES | hydrolysis in human whole blood compared to L-Dipivefrin [2] | Cmax and AUC compared among prodrugs [1] | permeation [3] | further results
1 | CNCC(OC(=O)C(C)(C)C)c1ccc(OC(=O)C(C)(C)C)c(OC(=O)C(C)(C)C)c1 (centres unmarked) [AQEP-01] |  | AQEP-04>AQEP-02>AQEP-03>AQEP-01 |  | 
2 | CCC(C)(C)C(=O)Oc1ccc(C(O)CNC)cc1OC(=O)C(C)(C)CC (centres unmarked) [AQEP-02] |  | AQEP-04>AQEP-02>AQEP-03>AQEP-01 |  | 
3 | CNCC(O)c1ccc(OC(=O)N(C)C)c(OC(=O)N(C)C)c1 (centres unmarked) [AQEP-03] | minimal hydrolysis; also recorded: did not show faster hydrolysis | AQEP-04>AQEP-02>AQEP-03>AQEP-01 |  | 
4 | CNCC(O)c1ccc(OC(=O)c2ccccc2)c(OC(=O)c2ccccc2)c1 (centres unmarked) [AQEP-04] | faster hydrolysis | higher Cmax and AUC compared to Prodrugs 01, 02 and 03 | did not permeate as well; also recorded: did not permeate higher than L-Dipivefrin | plasma levels of epinephrine converted from prodrug, compared to L-Dipivefrin ([2]; 1 μM in human whole blood in vitro): Rapid conversion and higher levels of epinephrine; Cmax and AUC compared to L-Dipivefrin [1]: less
5 | CCCC(=O)Oc1ccc(C(O)CNC)cc1OC(=O)CCC (centres unmarked) [AQEP-05] |  |  | effective permeation | conversion to epinephrine after IV administration compared to L-Dipivefrin [4]: Rapid conversion
6 | CC(C)OC(=O)N(C)CC(O)c1ccc(O)c(O)c1 (centres unmarked) [AQEP-06] | did not show any hydrolysis; also recorded: did not show faster hydrolysis |  |  | 
7 | CN(CC(O)c1ccc(O)c(O)c1)C(=O)OC(C)(C)C (centres unmarked) [AQEP-07] | did not show any hydrolysis; also recorded: did not show faster hydrolysis |  |  | 
8 | CCC(=O)Oc1ccc(C(O)CNC)cc1OC(=O)CC (centres unmarked) [AQEP-10] |  |  | effective permeation | 
9 | CCCCCC(=O)Oc1ccc(C(O)CNC)cc1OC(=O)CCCCC (centres unmarked) [AQEP-11] | faster hydrolysis |  |  | permeation (flux vs. carbon chain length) ([3]; 5 carbon straight chain): permeation dropped

Continued, in another order:

Row | hydrolysis in human whole blood compared to L-Dipivefrin [2] | SMILES | Cmax and AUC compared among prodrugs [1] | permeation [3] | further results
10 | faster hydrolysis | CCCCC(=O)Oc1ccc(C(O)CNC)cc1OC(=O)CCCC (centres unmarked) [AQEP-08] |  | effective permeation | 
11 | faster hydrolysis | CNCC(O)c1ccc(OC(=O)C(C)C)c(OC(=O)C(C)C)c1 (centres unmarked) [AQEP-09] |  | effective permeation | ex vivo permeation of film formulations with varying polysaccharide content ([3]; formulations containing pullulan, compared to L-dipivefrin): Higher permeation; absorption with addition of NaF to the formulation [5]: increased the absorption
12 | faster hydrolysis | CCOC(=O)Oc1ccc(C(O)CNC)cc1OC(=O)OCC (centres unmarked) [AQEP-12] |  |  | 
